We go through eleven compounds from patent US9156837B2, “Heterocyclic compound” (Takeda Pharmaceutical Company Limited, priority 2011, dated 2015).

Each structure is given as a SMILES string.

Assay [1] deals with T1, RORγt (Homo sapiens, UniProt P51449).
T1 sequence (P51449 1-497 isoform P51449-2): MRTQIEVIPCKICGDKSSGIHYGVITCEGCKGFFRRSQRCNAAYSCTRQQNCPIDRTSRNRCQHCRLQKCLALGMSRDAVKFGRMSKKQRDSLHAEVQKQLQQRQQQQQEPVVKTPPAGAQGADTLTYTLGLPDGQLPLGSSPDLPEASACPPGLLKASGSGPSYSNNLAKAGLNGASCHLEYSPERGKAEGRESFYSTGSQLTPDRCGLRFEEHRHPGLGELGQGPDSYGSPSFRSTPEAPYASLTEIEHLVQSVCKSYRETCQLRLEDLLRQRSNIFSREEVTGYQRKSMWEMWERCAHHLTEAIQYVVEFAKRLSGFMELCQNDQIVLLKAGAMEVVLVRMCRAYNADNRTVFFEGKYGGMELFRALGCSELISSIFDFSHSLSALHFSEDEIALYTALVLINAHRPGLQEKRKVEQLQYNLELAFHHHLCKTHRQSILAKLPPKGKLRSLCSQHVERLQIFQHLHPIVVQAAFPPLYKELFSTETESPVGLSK
As to the kind of experiment: Cofactor recruitment test (Alpha Screen, biotinylated SRC-1 peptide). Conditions: test compound 1 μM, RORγt and biotinylated SRC-1 peptide, read-out: signal value inhibitory rate. Type of assay: biochemical. As to the method: Cofactor recruitment test was performed by Alpha Screen (Histidine Detection Kit, PerkinElmer) method. First, a test compound was diluted with an assay buffer (50 mM Tris-HCl (pH 7.5), 50 mM KCl, 1 mM DTT, 0.1% BSA) and added to a 384 well plate by 5 μL. Then, RORγt diluted with an assay buffer to 125 nM was added by 10 μL each, after which solutions of 25 nM biotinylated SRC-1 peptide (biotin-[…]), 12.5 μg/mL acceptor beads and 12.5 μg/mL donor beads prepared with the assay buffer were added by 10 μL each. The mixture was stood in a dark place for 1 hr, and the signal value was measured by Envision (PerkinElmer).

In assay [2] the target is T1, RORγt. The assay is described as follows: RORγt binding test (TR-FRET, fluorescent-labeled cholesterol). To be noted: test compound 1 μM, histidine-tagged RORγt, read-out: binding inhibitory rate of fluorescent-labeled cholesterol to RORγt. As to the method:
The binding activity of the test compound to RORγt was measured by a time resolved fluorescence resonance energy transfer method (TR-FRET) utilizing histidine-tagged RORγt, fluorescent-labeled cholesterol (BODIPY-cholesterol, AVIVA), and terbium-labeled anti-histidine tag antibody (Invitrogen). First, a test compound diluted with an assay buffer (20 mM Tris-HCl (pH 7.5), 100 mM NaCl, 1 mM DTT, 0.1% BSA) was added to a 384 well plate by 3 μL. Then, RORγt diluted with an assay buffer to 240 nM was added by 3 μL, after which fluorescent-labeled cholesterol diluted with the assay buffer to 12 μM was added by 3 μL, and the mixture was stood at room temperature for 20 min. Thereafter, a terbium-labeled anti-histidine tag antibody diluted with the assay buffer to 8 nM was added by 3 μL. The mixture was stood at room temperature for 20 min, and fluorescence intensity (excitation wavelength 320 nm, fluorescence wavelength 520 nm, delay time 100 microseconds) was measured by Envision (PerkinElmer).
The results (binding inhibitory rate of fluorescent-labeled cholesterol to RORγt at test compound 1 μM) measured by the above-mentioned method are shown in Table 2.

Assay [3] deals with CD4 positive naive T cells (differentiation into Th17 cells). The assay is described as follows: Mouse Th17 cell differentiation induction test. Format: cell-based. Conditions: 96 h; test compound 10 μM; BALB/c mouse CD4 positive naive T cells; 4 days; ELISA; read-out: inhibitory rate (IL-17A in culture supernatant, Th17 differentiation). As to the method:
CD4 positive naive T cells were collected from the spleen cells of BALB/c mice (female, 8-11w) using CD4+CD62L+ T Cell Isolation kit II (Miltenyi Biotec). The CD4 positive naive T cells were plated in a 96 well plate (3×10^5 cells/well), stimulated (37° C. for culture) with anti-mouse CD3ε antibody (10 μg/mL, solid phase) and anti-CD28 antibody (5 μg/mL) for 4 days in the presence of anti-IFN-γ antibody, anti-IL-4 antibody, anti-IL-2 antibody, IL-6, TGF-β and IL-23 to allow for differentiation into Th17 cells. The compound was dissolved in DMSO and then added. The cells were cultured under these conditions for 4 days, the concentration of IL-17A in the culture supernatant obtained by centrifugation was measured by ELISA, and differentiation of the Th17 cells was evaluated.

Assay [4] deals with T1, RORγt. The assay is described as follows: Jurkat reporter test (human IL-17 ROR response element luciferase). Type of assay: cell-based. Conditions: test compound 3 μM; Jurkat cells transfected with IL-17 ROR response element luciferase reporter and RORγt vector; cultured overnight; read-out: luminescence level inhibitory rate. The procedure: The Jurkat cells used for the reporter test were cultured in a culture medium (RPMI (Invitrogen), 10% FCS (AusGeneX), 100 U/mL penicillin, 100 μg/mL streptomycin). On the day of the test, 4×10^7 cells were recovered by a centrifugal operation (1000 rpm, 5 min.) and suspended in PBS (phosphate buffered saline) (Invitrogen). Thereafter, the cells were recovered again by a centrifugal operation, and suspended in 2 mL of R buffer (NEON transfection kit, Invitrogen). Then, a reporter vector 53 μg wherein a human IL-17 ROR response element was inserted into the upstream of luciferase of pGL 4.28 (Promega), and a vector (27 μg) wherein RORγt sequence was inserted into the downstream of CMV promoter were added to the cell suspension. Gene transfer was performed by Electroporation apparatus (NEON, Invitrogen) under the conditions of pulse voltage 1350 V, interval 10 milliseconds, number of times 3. The cells after gene transfer were suspended in 40 mL of a reaction medium (RPMI, 10% Lipid reduced FCS (HyClone), 10 mM HEPES (pH 7.5), 100 U/mL penicillin, 100 μg/mL streptomycin, 5 μM lovastatin), and plated in a 96 well plate by 90 μL. A test compound diluted with the reaction medium was added by 10 μL, and the cells were cultured overnight in an incubator. Bright-Glo (Promega) was added by 100 μL, and the mixture was stirred at room temperature for 10 min, and the luminescence level was measured by Envision (PerkinElmer).
The results (luminescence level inhibitory rate at test compound 3 μM) measured by the above-mentioned method are shown in Table 4.

For assay [5], the system named is Peripheral blood mononuclear cells (PBMC). The assay is described as follows: Human PBMC IL17 production test. Type of assay: cell-based. To be noted: 72 h; test compound 10 μM; human PBMC stimulated by anti-CD3/CD28 Dynabeads; 3 days; ELISA; read-out: inhibitory rate (IL-17A in culture supernatant, IL-17 production). The procedure:
Peripheral blood mononuclear cells (PBMC) collected from human peripheral blood by a density gradient centrifugation method were stimulated by Dynabeads (registered trade mark; anti-CD3/CD28 antibody) and cultured at 37° C. for 3 days. The compound was dissolved in DMSO and then added. After culture for 3 days under such conditions, the concentration of IL-17A in the culture supernatant obtained by centrifugation was measured by ELISA, and the activity of the compound on IL-17 production was evaluated.

With `CC(C)(C)n1ncc(-c2nc(CC(=O)NCC3CCOCC3)cs2)c1-c1ccccc1` [Example 41], the results for the inhibition at 1 µM at RORγt [1] and on RORγt [2] were 101% and 94.6%, respectively. In assay [3], the inhibition at 10 µM was determined as 92.6%. For the same compound, the inhibition at 3 µM at RORγt [4] stood at 82.1%.
`O=C(Cc1csc(-c2cnn(C3CCCCC3)c2-c2ccc(F)cc2)n1)NCC1CCOCC1` [Example 51, 2-{2-[1-cyclohexyl-5-(4-fluorophenyl)-1H-pyrazol-4-yl]-1,3-thiazol-4-yl}-N-(tetrahydro-2H-pyran-4-ylmethyl)acetamide]: the inhibition at 1 µM came to 78.6% at RORγt [1] and 95.3% on RORγt [2]. The inhibition at 10 µM in assay [3] was determined as 86%. The inhibition at 3 µM at RORγt [4] came to 94.9%.
With `CC(C)(C)n1ncc(-c2nc(CC(=O)NCc3ccc(-n4ccnc4)cc3)cs2)c1-c1ccc(F)cc1` [Example 170, 2-{2-[1-tert-butyl-5-(4-fluorophenyl)-1H-pyrazol-4-yl]-1,3-thiazol-4-yl}-N-[4-(1H-imidazol-1-yl)benzyl]acetamide], the inhibition at 1 µM on RORγt [1] was 100%; on RORγt [2], 86.5%. Moreover, on RORγt [4], the inhibition at 3 µM was determined as 94.4%.
Regarding `CN(Cc1ccncc1)C(=O)Cc1csc(-c2cnn(C(C)(C)C)c2-c2ccc(F)cc2)n1` [Example 18, 2-{2-[1-tert-butyl-5-(4-fluorophenyl)-1H-pyrazol-4-yl]-1,3-thiazol-4-yl}-N-methyl-N-(pyridin-4-ylmethyl)acetamide], the inhibition at 1 µM on RORγt [1] amounted to 102%; on RORγt [2], 96.1%. Besides, the inhibition at 10 µM in assay [3] stood at 96.3%. For the same compound, on RORγt [4], the inhibition at 3 µM turned out to be 87.1%.
Regarding `CC(C)(C)n1ncc(-c2nc(CC(=O)NCC3CCOCC3)cs2)c1-c1ccc(Cl)cc1` [Example 128, 2-{2-[1-tert-butyl-5-(4-chlorophenyl)-1H-pyrazol-4-yl]-1,3-thiazol-4-yl}-N-(tetrahydro-2H-pyran-4-ylmethyl)acetamide], the inhibition at 1 µM on RORγt [1] is 101%; at RORγt [2] it was 97.8%. In addition, the inhibition at 10 µM in assay [3] was determined as 97.7%. In addition, the inhibition at 3 µM on RORγt [4] was 97.1%.
Taken in the same sequence, the figures for `CC(C)(C)n1ncc(-c2nc(CC(=O)NCc3cccnc3)cs2)c1-c1ccc(F)cc1` [Example 79, 2-{2-[1-tert-butyl-5-(4-fluorophenyl)-1H-pyrazol-4-yl]-1,3-thiazol-4-yl}-N-(pyridin-3-ylmethyl)acetamide] were 99.8%, 95.4%, 69% and 85.7%.
For `COc1ccc(-c2c(-c3nc(CC(=O)NCC4CCOCC4)cs3)cnn2C(C)(C)C)cc1F` [Example 152, 2-{2-[1-tert-butyl-5-(3-fluoro-4-methoxyphenyl)-1H-pyrazol-4-yl]-1,3-thiazol-4-yl}-N-(tetrahydro-2H-pyran-4-ylmethyl)acetamide], the inhibition at 1 µM on RORγt [1] worked out at 95.4%; on RORγt [2], 95.9%. Further, the inhibition at 10 µM in assay [3] was found to be 91.2%; in assay [5], 92%. Moreover, on RORγt [4], the inhibition at 3 µM is 96%.
In the case of `CCCN(Cc1ccccc1)C(=O)Cc1csc(-c2cnn(C(C)(C)C)c2-c2ccc(F)cc2)n1` [Example 97, N-benzyl-2-{2-[1-tert-butyl-5-(4-fluorophenyl)-1H-pyrazol-4-yl]-1,3-thiazol-4-yl}-N-propylacetamide], the inhibition at 1 µM on RORγt [1] was found to be 98.8%; on RORγt [2], 87.3%. Further, the inhibition at 10 µM in assay [3] turned out to be 95%. Moreover, at RORγt [4], the inhibition at 3 µM stood at 84.1%.
Taken in the same sequence, the figures for `CC(C)(C)n1ncc(-c2nc(CC(=O)NCC3CCOCC3)cs2)c1-c1ccc(F)cc1` [Example 14, 2-{2-[1-tert-butyl-5-(4-fluorophenyl)-1H-pyrazol-4-yl]-1,3-thiazol-4-yl}-N-(tetrahydro-2H-pyran-4-ylmethyl)acetamide] were 109%, 92%, 77% and 81%.
As for `CC(C)(C)n1ncc(-c2nc(CC(=O)NCC3CCOCC3)cs2)c1-c1cc2ccccc2s1` [Example 150, 2-{2-[5-(1-benzothiophen-2-yl)-1-tert-butyl-1H-pyrazol-4-yl]-1,3-thiazol-4-yl}-N-(tetrahydro-2H-pyran-4-ylmethyl)acetamide], the inhibition at 1 µM worked out at 99.3% on RORγt [1] and 98.7% on RORγt [2]. Besides, the figures for the inhibition at 10 µM in assay [3] and in assay [5] were 97.7% and 92%, respectively. In addition, on RORγt [4], the inhibition at 3 µM worked out at 98.4%.
With `CC(C)(C)n1ncc(-c2nc(CC(=O)NCC3CCOCC3)cs2)c1-c1ccc(C#N)cc1` [Example 43, 2-{2-[1-tert-butyl-5-(4-cyanophenyl)-1H-pyrazol-4-yl]-1,3-thiazol-4-yl}-N-(tetrahydro-2H-pyran-4-ylmethyl)acetamide], the inhibition at 1 µM stood at 101% on RORγt [1] and 98.3% at RORγt [2]. Besides, in assay [3], the inhibition at 10 µM was found to be 78.6%. The inhibition at 3 µM at RORγt [4] was found to be 94.2%.
